This note sets out measurements from patent publication US11629329B2, “Bioink compositions and methods of preparing and using the same” (Wake Forest University Health Sciences, priority 2017, dated 2023).

The test system of data set [1] is HCT116. Nature of the data set: Short term 5-FU drug study on organoids (MTS, live/dead ratio). It counts as cell-based. As to conditions: drug treated organoids vs control. The protocol:
Three bioink formulations (“HA-collagen bioink”) were prepared and the viscoelastic behavior as well as cellular behavior within the material was quantified. The HA-collagen bioinks were formulated in three concentrations: 1:2, 1:3, and 1:4 (Heprasil® from Hystem-HP kit: methacrylated collagen type-1 from Advanced Biomatrix). Collagen was prepared as instructed by Advanced Biomatrix at 6 mg/mL and Heprasil® was prepared to 1% w/v with 0.1% photointiator in DiH2O and warmed to 37° C. Bioink formulations underwent rheological, cell viability, and 3D bioprinting testing conducted on the BioBots 1 device. As a comparison, tests were performed using the a Hystem-HP kit (thiolated hyaluronic acid and gelatin) made with 0.1% photointiator in DiH2O. Rheology was performed to determine shear elastic moduli G′ and 3D bioprinting was utilized to test printability of each material. Organoids were formed in 10 μL drops of bioink with […] per organoid, containing BXP3C, HCT116, Lx2, or pfHSC cell lines. Live/dead staining and picrosirus red collagen bundling analysis was performed on Lx2 and pfHSC organoids to assess viability and micro-architecture formation. A short term 5-Fluorouracil (5-FU) drug study was also conducted on HCT116 to show drug efficacy invariance between the Hystem-HP kit and 1:3 formulated bioink. […]

Data set [2] relates to liver organoids. Nature of the data set: Acetyl-para-aminophenol toxicity and NAC rescue in liver organoids (live/dead, albumin, alpha-GST). It counts as cell-based, human.
Experimental: Drugs were dissolved in HCM media to reach the desired concentrations. […] Viability of the liver organoids was assessed using live/dead assay on day 14; albumin and alpha GST production were quantified from media collected on days 4, 7, 10, and 14, as described above.
The test system of data set [3] is liver organoids. The experiment in a line: Recalled drug study on liver organoids (Cell-Titer Glo viability, live/dead). It counts as cell-based, human. As to conditions: for EC50: Homo sapiens, liver organoids, 48 hours, read-out: half-maximal effective concentration (EC50), analysis of cell death. The protocol:
(§1) Cryopreserved primary human hepatocytes were thawed according to manufacturer's protocol and the cells were directly used in experiments. LX2 hepatic stellate cells were trypsinized with 0.05% of trypsin (Hyclone) and counted. Forty thousand human hepatocytes and ten thousand LX2 hepatic stellate cells were suspended in 10 μl of formulation collagen gel (collagen, hyaluronic acid, and fibronectin) or without fibronectin for the formation of liver organoids. The organoids were engineered in an identical method to cell line organoid formation described above, except 24-well plates (Corning) were employed. The wells were filled with 2 mL of HCM media (Triangle Research Labs), which was replenished after collecting media aliquots for further analysis on day 4, 7 and 10 of the experiment. The organoids were cultured for 14 days.
The hepatoxic drugs bromfenac sodium, troglitazone and tienilic acid, recalled by the FDA, were chosen for this study.^12, 32 All the compounds were purchased from Sigma-Aldrich. Drugs were dissolved in DMSO (dimethyl sulfoxide) for stock concentrations of 100 mM. Concentrations of 1 μM, 10 μm, 100 μM, and 1000 μM were used for bromfenac sodium and tienilic acid. Concentrations of 1 μm, 10 μM, and 100 μM were used for troglitazone. The drug study was conducted for 48 hours in a 24 well plate at 37° C. with 5% CO2; each well in the plate containing one liver organoid in a 2 mL of media (control) or media with drug dissolved at the concentrations mentioned above (n≥6). The response of the liver organoids was assessed using Cell-Titer Glo Luminescent Cell Viability assay (Promega) prepared according to manufacturer's protocol. The results were quantified using the Veritas Microplate Luminometer setup according to manufacturer's instructions (Turner Bio Systems, Promega). Each condition was also subjected to live/dead staining (Thermo Fisher). Stained organoids were imaged using macro-confocal microscopy (Leica TCS LSI, Leica Microsystems).

For data set [4], the system named is liver organoids. Nature of the data set: cells. As to conditions: 48 hours; for EC50: liver organoids, read-out: half-maximal effective concentration (EC50), analysis of cell death. It counts as cell-based, human. The protocol:
as §1
The environmental toxins glyphosate, mercury chloride, and lead chloride were purchased from Sigma-Aldrich. Drugs were dissolved in diH2O for stock concentrations of 50 mM (glyphosate), 10 mM (mercury chloride), and 20 mM (lead chloride). Concentrations of 1 mM, 5 mM, 10 mM, and 20 mM were used for glyphosate. Concentrations of 10 μM, 20 μM, 50 μM, and 100 μM were used for mercury chloride. Concentrations of 1 mM, 2 mM, 5 mM, and 10 mM were used for lead chloride. The drug study was conducted for 48 hours (n=7) and liver organoids were assessed for viability with ATP assay and live/dead assay as described above.

For data set [5], the system named is pfHSCs. The experiment in a line: Cell adhesion and spreading behavior in bioink organoids with fibronectin. Format: cell-based. As to conditions: 16 μg per 10 μL construct. The protocol:
Immobilization of fibronectin in the bioink was then verified by assessing cell adhesion and spreading behavior with pfHSCs. Fibronectin (16 μg per 10 μL construct) was added to collagen which was used to make organoids using the bioink with pfHSCs (3 million cells/mL). On days 1, 4, 7, and 10, organoids were removed from culture, fixed, and stained with phalloidin and DAPI.

In data set [6] the test system is HepG2 cells. The experiment in a line: Cancer organoid proliferation and viability in gel formulations, HepG2. Format: cell-based, human. Conditions: days 4, 7, 10. The protocol:
The cells were trypsinized with 0.05% of trypsin (Hyclone) and counted. […] We chose this cell density for cancer organoid formation based on the results obtained from 3D organoid research performed in our lab.^31 The gel- cell mixture was pipetted in a well of a 48-well plate (Corning, N.Y.) that was pre-coated with 200 μl of polydimethylsiloxane (PDMS; Sylgard 184 elastomer kit, Dow Corning, Midland, Mich.) prepared according to manufacturer's protocol. The organoids were then crosslinked with UV light (Dymax BlueWave 75, Torrington, Conn.) on a high-intensity setting for 3 seconds. The wells were filled with 500 μL of media, which was replenished on day 4 and day 7 of the experiment. The organoids were maintained in culture for 10 days.
Biocompatibility of the different gel formulations was assessed in human cancer cell and liver organoids on days 4, 7, and 10 (n=3) using a standard live/dead cell viability kit (Thermo Fisher, Waltham, Mass.) according to the manufacturer's recommendation. […] Proliferation of cells within the different organoids was evaluated on days 4, 7, and 10 (n=3) by quantification of mitochondrial metabolism with a CellTiter 96® Aqueous One Solution Cell Proliferation Assay kit (Promega, Madison, Wis.) according to the manufacturer's protocol. Absorbance was quantified on a Spectramax M5 plate reader (Molecular Devices, Sunnyvale, Calif.) at 490 nm.

Data set [7] deals with LX2 hepatic stellate cells. The experiment in a line: Morphology of cells in HA-Collagen bioink with covalently bound laminin or fibronectin. As to conditions: 7 days, phalloidin and DAPI. Format: cell-based. The protocol: LX2 hepatic stellate cells were cultured within collagen or a HA-Collagen bioink with covalently bound laminin, fibronectin, or both. After 7 days, the constructs were fixed and stained with phalloidin to highlight the actin cytoskeleton of the cells and DAPI for nuclei. What is evident is that modulating laminin versus fibronectin changes the morphology and phenotype of the cells within the constructs. While not wishing to be bound to any particular theory, these changes are likely due to activation of different integrin receptors responsible for binding to collagen, laminin, and fibronectin cell adhesion motifs.

For data set [8], the system named is liver organoids. Nature of the data set: Liver organoids with and without fibronectin (live/dead, albumin, urea). Format: cell-based. The protocol: as §1
Cell viability was determined by live/dead assays (Thermo Fisher) on day 7 and 14 using representative images and by quantification of biomarkers from media collected on days 4, 7, 10, and 14 (n=3): Alpha-Glutathione s-transferase (alpha-GST) is secreted by liver cells upon cell death. The secreted levels of alpha-GST by the organoids are quantified using a GST alpha assay kit (GS41, Oxford Biomedical Research; Rochester Hills, Mich.). Absorbance was read on a Spectramax M5 plate reader (Molecular Devices) at 450 nm for alpha-GST.
The secreted levels of albumin and urea of the liver organoids were quantified from media collected on days 4, 7, 10, and 14 (n=3) using a Human Albumin ELISA Kit (Abeam; Boston, Mass. ab108788) and Urea Assay Kit (Abcam, ab83362), respectively. Absorbance was read on a Spectramax M5 plate reader (Molecular Devices) at 450 nm for albumin and at 430 nm for urea.

The mark [9] stands for this setting: organoids containing fibronectin vs without.

Take `O=c1[nH]cc(F)c(=O)[nH]1` [5-FU, 5-Fluorouracil]: in data set [1], the “metabolism, MTS assay” value is reported as “lower metabolism” and the “ratio of dead cells” value is “larger ratio of dead cells”.

As to `CC(=O)N[C@@H](CS)C(=O)O` [NAC, N-Acetyl-L-cysteine], in data set [2] (10 mM APAP with 20 mM NAC), the “cell viability of liver organoids exposed to high-concentration APAP” value is “markedly improved cell viability”. Moreover, the albumin production result in data set [2] (APAP 10 mM co-incubated with NAC 20 mM, day 14) was “partially rescued albumin production”. In data set [2] (APAP 10 mM with NAC 20 mM, by day 14), the alpha-GST production entry is listed as “noticeable decrease approaching control levels”.

Turning to `Nc1c(CC(=O)O)cccc1C(=O)c1ccc(Br)cc1` [bromfenac sodium], the EC50 in data set [3] was 371 µM. For the same compound, the “cell death, live/dead analysis” value in data set [3] (at 1000 μM) is on record as “near to complete cell death”.

As to `O=C(O)CNCP(=O)(O)O` [glyphosate], the EC50 in data set [4] (Homo sapiens) came out at 4100 µM. In addition, the “cell death, live/dead analysis” value in data set [4] (at 20 mM) is “near to complete cell death”.

With `[Cl][Pb][Cl]` [lead chloride], the EC50 in data set [4] is 970 µM.

For the compound `[Cl][Hg][Cl]` [mercury chloride], the EC50 in data set [4] was 28.2 µM.

With `O=C(O)COc1ccc(C(=O)c2cccs2)c(Cl)c1Cl` [tienilic acid], in data set [3], the EC50 worked out at 491 µM.

For `Cc1c(C)c2c(c(C)c1O)CCC(C)(COc1ccc(CC3SC(=O)NC3=O)cc1)O2` (centres unmarked) [troglitazone], the EC50 in data set [3] turned out to be 6.9 µM.

Consider fibronectin, for which the “cell elongation behavior earlier than in conditions without fibronectin” value in data set [5] worked out at 3 days. Moreover, the “proliferation of encapsulated cells in the organoids” value in data set [6] is listed as “facilitated the proliferation”. Moreover, the “morphology and phenotype of the cells” value in data set [7] is “mesenchymal”. Also, in data set [8] (setting [9]), the production of albumin entry is “significantly greater” and the production of urea entry is “significantly greater”. Further, in data set [8] (with vs without fibronectin, 14 days), the “cell viability, live/dead analysis” value is “comparable cell viability”.

Turning to laminin, in data set [7], the “morphology and phenotype of the cells” value was “epithelial nature”.
